ChEMBL document CHEMBL4411281, “Unravel a neuroactive sHA sulfation pattern with neurogenesis activity by a library of defined oligosaccharides” (Eur J Med Chem, 2019)
The source made the active and inactive calls. No cut-off for these calls is given here.

Columns and labels:
[1] = biological target: T1, Neurotrophic factor BDNF precursor form (Homo sapiens, UniProt P23560); test: Binding affinity to BDNF (unknown origin) by SPR assay
T1 sequence (P23560 whole entry): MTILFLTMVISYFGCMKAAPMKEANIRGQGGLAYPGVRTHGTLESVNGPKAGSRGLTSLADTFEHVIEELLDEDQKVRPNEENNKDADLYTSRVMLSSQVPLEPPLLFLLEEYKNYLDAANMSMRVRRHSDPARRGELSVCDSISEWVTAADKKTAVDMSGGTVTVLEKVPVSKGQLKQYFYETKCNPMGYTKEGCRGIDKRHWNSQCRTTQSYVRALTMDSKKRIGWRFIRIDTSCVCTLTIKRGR

[2] = biological target: Fibroblast growth factor 1 (Homo sapiens) (UniProt P05230); test: Binding affinity to FGF-1 (unknown origin) at 800 nM by SPR assay
Chain of Fibroblast growth factor 1 (Homo sapiens) (P05230 whole entry): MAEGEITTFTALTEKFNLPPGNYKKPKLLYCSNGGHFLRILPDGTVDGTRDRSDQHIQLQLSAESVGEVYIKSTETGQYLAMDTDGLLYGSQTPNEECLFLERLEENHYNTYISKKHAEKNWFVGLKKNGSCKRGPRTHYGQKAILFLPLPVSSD

Hippocampal neurone [3] = test: Induction of neurite outgrowth in Sprague-Dawley E18 rat hippocampal neurons assessed as neurite length after 24 hrs in presence of anti-BDNF antibody by DAPI staining-based assay relative to control; type: functional, cell-based
Hippocampal neurone [4] = test: Induction of neurite outgrowth in Sprague-Dawley E18 rat hippocampal neurons assessed as neurite length after 24 hrs in presence of anti-MDK antibody by DAPI staining-based assay relative to control; type: functional, cell-based
Midkine = biological target: T2, Midkine (Homo sapiens, UniProt P21741); test: Binding affinity to MDK (unknown origin) by SPR assay
T2 sequence (P21741 whole entry): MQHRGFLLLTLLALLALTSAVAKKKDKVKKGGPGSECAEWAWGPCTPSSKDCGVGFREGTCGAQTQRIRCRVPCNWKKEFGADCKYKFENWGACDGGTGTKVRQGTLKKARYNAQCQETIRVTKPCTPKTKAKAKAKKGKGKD

Hippocampal neurone [5] = test: Induction of neurite outgrowth in Sprague-Dawley E18 rat hippocampal neurons assessed as neurite length at 250 ug/ml solubilized in culture media after 24 hrs by DAPI staining-based assay relative to control; type: functional, cell-based
[6] = Induction of neurite outgrowth in Sprague-Dawley E18 rat hippocampal neurons assessed as neurite length after 24 hrs by DAPI staining-based assay relative to control; type: functional, Hippocampal neurone
Pleiotrophin = biological target: T3, Pleiotrophin (Homo sapiens, UniProt P21246); test: Binding affinity to PTN (unknown origin) by SPR assay
T3 sequence (P21246 whole entry): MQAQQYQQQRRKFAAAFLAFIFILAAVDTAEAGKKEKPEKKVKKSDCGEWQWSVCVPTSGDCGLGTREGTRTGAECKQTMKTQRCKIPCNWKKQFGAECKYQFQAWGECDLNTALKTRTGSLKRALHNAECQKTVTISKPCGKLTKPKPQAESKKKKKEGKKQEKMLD

Hippocampal neurone [7] = test: Induction of neurite outgrowth in Sprague-Dawley E18 rat hippocampal neurons assessed as neurite length at 50 ug/ml in presence of Proteus vulgaris Chondroitinase ABC after 12 hrs by DAPI staining-based assay relative to control; type: functional, cell-based
Midkine (Homo sapiens) = biological target: T4, Midkine (Homo sapiens) (UniProt P21741); test: Binding affinity to MDK (unknown origin) at 800 nM by SPR assay
T4 sequence (whole entry): T2 sequence (P21741 whole entry)

[8] = biological target: T5, Neurotrophic factor BDNF precursor form (Homo sapiens) (UniProt P23560); test: Binding affinity to BDNF (unknown origin) at 800 nM by SPR assay
T5 sequence (whole entry): T1 sequence (P23560 whole entry)

[9] = biological target: T6, Pleiotrophin (Homo sapiens) (UniProt P21246); test: Binding affinity to PTN (unknown origin) at 800 nM by SPR assay
T6 sequence (whole entry): T3 sequence (P21246 whole entry)

Compound	Kd [1] [nM]	Activity [2]	Kd (Midkine) [nM]	Kd (Pleiotrophin) [nM]	Activity (Hippocampal neurone [7])	Activity (Midkine (Homo sapiens))	Activity [8]	Activity [9]	Activity (Hippocampal neurone [3])	Activity (Hippocampal neurone [4])	Activity (Hippocampal neurone [5])	Activity [6] [%]
CC(=O)N[C@H]1[C@H](O[C@H]2[C@H](O)[C@@H](O)[C@H](O[C@@H]3[C@@H](NC(C)=O)[C@H](OCCCCCCN=[N+]=[N-])O[C@H](COS(=O)(=O)O)[C@@H]3OS(=O)(=O)O)O[C@@H]2C(=O)O)O[C@H](COS(=O)(=O)O)[C@H](OS(=O)(=O)O)[C@@H]1O[C@@H]1O[C@H](C(=O)O)[C@@H](O)[C@H](O)[C@H]1O	155	inactive	96.3	365	inactive						inactive	29.6
CC(=O)N[C@H]1[C@H](O[C@H]2[C@H](O)[C@@H](O)[C@H](O[C@@H]3[C@@H](NC(C)=O)[C@H](OCCCCCCN=[N+]=[N-])O[C@H](CO)[C@H]3OS(=O)(=O)O)O[C@@H]2C(=O)O)O[C@H](CO)[C@@H](OS(=O)(=O)O)[C@@H]1O[C@@H]1O[C@H](C(=O)O)[C@@H](O)[C@H](O)[C@H]1O		inactive				inactive	inactive	inactive				
CC(=O)N[C@H]1[C@H](O[C@H]2[C@H](O)[C@@H](O)[C@H](O[C@H]3[C@H](O)[C@@H](CO)O[C@@H](OCCCCCCN=[N+]=[N-])[C@@H]3NC(C)=O)O[C@@H]2C(=O)O)O[C@H](CO)[C@@H](O)[C@@H]1O[C@@H]1O[C@H](C(=O)O)[C@@H](O)[C@H](O)[C@H]1O		inactive				inactive	inactive	inactive				
CC(=O)N[C@H]1[C@H](O[C@H]2[C@H](O)[C@@H](O)[C@H](O[C@@H]3[C@@H](NC(C)=O)[C@H](OCCCCCCN=[N+]=[N-])O[C@H](COS(=O)(=O)O)[C@H]3OS(=O)(=O)O)O[C@@H]2C(=O)O)O[C@H](COS(=O)(=O)O)[C@@H](OS(=O)(=O)O)[C@@H]1O[C@@H]1O[C@H](C(=O)O)[C@@H](O)[C@H](O)[C@H]1O	659	inactive				inactive		inactive				6.7

Further lines, with some results ahead:

Kd [1] [nM]	Activity [2]	Kd (Midkine) [nM]	Kd (Pleiotrophin) [nM]	Activity (Hippocampal neurone [7])	Activity (Midkine (Homo sapiens))	Activity [8]	Activity [9]	Compound	Activity (Hippocampal neurone [3])	Activity (Hippocampal neurone [4])	Activity (Hippocampal neurone [5])	Activity [6] [%]
490	inactive	52.3	77.8					CC(=O)N[C@H]1[C@H](O[C@H]2[C@H](O)[C@@H](O)[C@H](O[C@H]3[C@H](O)[C@@H](COS(=O)(=O)O)O[C@@H](OCCCCCCN=[N+]=[N-])[C@@H]3NC(C)=O)O[C@@H]2C(=O)O)O[C@H](COS(=O)(=O)O)[C@@H](O)[C@@H]1O[C@@H]1O[C@H](C(=O)O)[C@@H](O)[C@H](O)[C@H]1O	inactive	inactive	inactive	27.3
	inactive				inactive	inactive	inactive	CC(=O)N[C@H]1[C@H](O[C@H]2[C@H](O)[C@@H](O)[C@H](O[C@H]3[C@@H](O)[C@@H](COS(=O)(=O)O)O[C@@H](OCCCCCCN=[N+]=[N-])[C@@H]3NC(C)=O)O[C@@H]2C(=O)O)O[C@H](COS(=O)(=O)O)[C@H](O)[C@@H]1O[C@@H]1O[C@H](C(=O)O)[C@@H](O)[C@H](O)[C@H]1O				1
